Source: EP2062893A1, “Fused imidazoles for cancer treatment” (Bayer Schering Pharma AG, priority 2007, dated 2009)

Legend:
Format in all cases: cell-based
[1] = tested on: OvCAR3 cells; assay: Cellular proliferation / Cytotoxicity assay (Alamar Blue / Resazurin cell viability); settings: Homo sapiens, OVCAR-3, 48h incubation, read-out: Anti-proliferative / Cytotoxic activity (OvCAR3 cells)
Experimental: Wells containing untreated control cells were filled with 200 µl DMEM (Dulbecco's Modified Eagle Medium) containing 0.5vol% v:v DMSO. The cells are then incubated with the substances for 48h at 37°C in a humidified atmosphere containing 5vol% CO2. To determine the viability of the cells, 20 µl of a Resazurin solution (90mg / I) are added. […] Viabilities are expressed as % values.

[2] = tested on: phosphorylated Akt protein; assay: Cellular PI3K / Akt pathway assay (phospho-Akt Ser473 sandwich ELISA); settings: Homo sapiens; MCF7 cells, ß-Heregulin (20ng/ml) stimulation, 48h incubation
Experimental: In order to study the cellular activity of the compounds according to the present invention, an Enzyme Linked Immunosorbent Assay (ELISA)-based assay has been used specific phospho-AKT. The assay is based on a Sandwich ELISA kit (PathScan™ Phospho-Akt1 (Ser473); Cell Signaling, USA; #7160). The ELISA Kit detects endogenous levels of phosphorylated Akt protein. A phospho-Akt (Ser473) antibody (Cell Signaling, USA; #9271) has been coated onto the microwells. After incubation with cell lysates, the coated antibody captures the phosphorylated Akt protein. Following extensive washing, Akt1 monoclonal antibody (Cell Signaling, USA; #2967) is added to detect the captured phospho-Akt1 protein. HRP-linked anti-mouse antibody (HRP: horseradish peroxidase; Cell Signaling, USA; #7076) is then used to recognize the bound detection antibody. HRP substrate (= 3,3',5,5'-tetramethylbenzidine (TMB); Cell Signaling, USA; #7160) is added to develop colour. The magnitude of optical density for this developed color is proportional to the quantity of phosphorylated Akt protein. MCF7 cells (ATCC HTB-22) are seeded into 96 well fate bottom plates at a density of 10000 cells/well. 24 hours after seeding, the cells are serum starved using low-serum medium (IMEM media including 0,1% charcoal treated FCS (FCS: fetal calf serum)). […] To stimulate Akt phosphorylation, ß-Heregulin (20ng/ml ß-HRG) is added in parallel to the compounds. Wells containing unstimulated control cells (no ß-Heregulin stimulation) are incubated with or without the diluted compound. Wells containing untreated control cells (no compound) are filled with medium containing 0.5% v:v DMSO and are or are not stimulated with ß-Heregulin. Cells are harvested and lysed with brief sonification in 1x cell lysis buffer (20mM Tris (pH7.5), 150 mM NaCl, 1 mM ethylene diaminetetraacetate (EDTA), 1 mM ethylene glycolbis(2-aminoethyl)-N,N,N',N'-tetraacetic acid (EGTA), 1vol% Triton X-100, 2.5mM sodium pyrophosphate, 1 mM β-glycerolphosphate, 1 mM Na3VO4, 1µg/ml leupeptin). The lysate is centrifuged for 10 min. at 4°C and the supernatant is transferred to a new tube. 100 µl of sample diluent (0.1vol% Tween-20, 0.1vol% sodium azide in phosphate buffered saline (PBS)) are added to a microcentrifuge tube and 100 µl of cell lysate are transferred into the tube and vortexed. 100 µl of each diluted cell lysate are added to the appropriate ELISA well, and incubated overnight at 4°C. The plates are washed 4 times with 1x wash buffer (1vol% tween-20, 0.33vol% thymol, in PBS). Next 100 µl of detection antibody (Akt1 (2H10) monoclonal detection antibody; Cell Signaling, USA; #2967) are added to each well and incubation continued for 1h at 37°C. The washing procedure is repeated between each step. 100µl of secondary antibody (anti-mouse IgG HRP-linked antibody; Cell Signaling, USA; #7076) are added to each well and incubated for 30 min. at 37°C. Than, 100µl of TMB substrate (0.05% 3,3',5,5' tetramethylbenzidine, 0.1 % hydrogen peroxide, complex polypeptides in a buffered solution; Cell Signaling, USA; #7160) are added to each well and incubated for 30 min. at 25°C. Finally 100 µl of STOP solution (0.05vol% α and β unsaturated carbonyl compound) are added to each well and the plate are shaked gently. The absorbance is measured at λ =450 nm (Wallac Victor2; Perkin Elmer, USA) within 30 min. after adding the STOP solution. The analysis of the data is performed using a statistical program (Excel; Microsoft, USA). Preferred compounds show an inhibitory activity towards Akt phosphorylation below 10µM.

[3] = tested on: phosphorylated GSK3; assay: Cellular pGSK3 assay (phospho-GSK3 Ser9 sandwich ELISA); settings: Homo sapiens; MCF7 cells, 48h incubation, IC50 of pGSK3 inhibition
Experimental: In order to study the cellular activity of the compounds according to the present invention, an ELISA-based assay has been established for the phosphorylated protein glycogen synthetase kinase 3 (GSK3). The assay is based on a solid phase sandwich ELISA that detects endogenous levels of phosphorylated GSK3 using a phospho-GSK3 (Ser9) specific antibody (BioSource International, Inc.; Catalog #KHO0461). After incubation with cell lysates, the coated antibody captures the phosphorylated GSK3 protein. Following extensive washing, GSK3 polyclonal antibody is added to detect the captured phospho-GSK3 protein. Secondary antibody (anti-rabbit IgG-HRP) is then used to recognize the bound detection antibody. After the second incubation and washing to remove all the excess anti-rabbit IgG-HRP, a substrate solution is added, which is acted upon by the bound enzyme to produce color. The intensity of this colored product is directly proportional to the concentration of GSK-3β [pS9] present in the original specimen. MCF7 cells (ATCC HTB-22) were seeded into 96 well fate bottom plates at a density of 10000 cells/well. After 24 h 1 µl each of the compound dilutions (test compounds were dissolved as 10 mM solutions in dimethylsulfoxide (DMSO) and subsequently diluted) were added into each well of the 96 well plates and incubated for 48h at 37°C in a humidified athmosphere containing 5% CO2. Cells were harvested and lysed in cell extraction buffer (10 mM Tris, pH 7.4, 100 mM NaCl, 1 mM EDTA, 1 mM EGTA, 1 mM NaF, 20 mM Na4P2O7, 2 mM Na3VO4, 1% Triton X-100, 10vol% glycerol, 0.1vol% SDS, 0.5vol% deoxycholate, 1 mM phenylmethylsulfonylfluorid (PMSF)). The lysate were centrifuged for 10 min. at 4°C and the supernatant were transferred to a new tube. 50 µl of sample diluent (standard diluent buffer, Biosource) were added and 100 µl of cell lysate transferred into the tube and vortexed. 100 µl of each diluted cell lysate were added to the appropriate ELISA well plate and incubated for 3h at room temperature. The plates were washed 4 times with 1x wash buffer (Biosource). 50 µl of detection antibody (GSK3 (Ser9) detection antibody; BioSource) were added to each well and incubated for 30 min. at room temperature. The washing procedure was repeated between each step. 100µl of HRP-linked secondary antibody (anti-mouse IgG HRP-linked antibody) were added to each well and incubated for 30 min. at room temperature. 100µl of TMB substrate (0.05vol% 3,3',5,5' tetramethylbenzidine, 0.1vol% hydrogen peroxide, complex polypeptides in a buffered solution; Biosource) were added to each well and incubated for 30 min. at room temperature. Finally 100 µl of Stop solution (0.05vol% α and β unsaturated carbonyl compound) were added to each well and the plate were shaked gently for a few seconds. The absorbance was measured at λ = 450 nm (Wallac Victor2; Perkin Elmer, USA) within 30 min. after adding the stop solution. The analysis of the data was performed using a statistical program (Excel; Microsoft, USA) and the IC50 of pGSK3 inhibition was determined.

Row | IC50 [2] [nM] | IC50 [3] [nM] | Structure (SMILES) | IC50 [1] [nM]
1 | < 1000 | 1000 to 10000 | c1ccc(-c2c(-c3ccc(CN4CCC(c5n[nH]c(-c6ccccn6)n5)CC4)cc3)nc3ncccn23)cc1 [Example 1, 3-phenyl-2-(4-{[4-(5-pyridin-2-yl-1,2,4-triazol-3-yl)piperidin-1-yl]methyl}phenyl)imidazo[1,2-a]pyrimidine] | < 10000
2 | < 1000 | 1000 to 10000 | c1ccc(-c2c(-c3ccc(CN4CCC(c5n[nH]c(-c6ccccn6)n5)CC4)cc3)nc3ccccn23)cc1 [Example 2, 3-phenyl-2-(4-{[4-(5-pyridin-2-yl-1H-1,2,4-triazol-3-yl)piperidin-1-yl]methyl}phenyl)imidazo[1,2-a]pyridine] | < 10000
3 | < 1000 | < 1000 | c1ccc(-c2c(-c3ccc(CN4CCC(c5n[nH]c(-c6ccccn6)n5)CC4)cc3)nc3nccnn23)cc1 [Example 3, 7-phenyl-6-(4-{[4-(5-pyridin-2-yl-1H-1,2,4-triazol-3-yl)piperidin-1-yl]methyl}phenyl)imidazo[1,2-b][1,2,4]triazine] | < 10000
4 |  | 1000 to 10000 | c1ccc(-c2c(-c3ccc(CN4CCC(c5nc(-c6cnccn6)no5)CC4)cc3)nc3ncccn23)cc1 [Example 4, 3-phenyl-2-(4-{[4-(3-pyrazin-2-yl-1,2,4-oxadiazol-5-yl)piperidin-1-yl]methyl}phenyl)imidazo[1,2-a]pyrimidine] | > 10000
5 | < 1000 | < 1000 | N#Cc1cccn2c(-c3ccccc3)c(-c3ccc(CN4CCC(c5n[nH]c(-c6ccccn6)n5)CC4)cc3)nc12 [Example 5, 3-phenyl-2-(4-{[4-(5-pyridin-2-yl-1,2,4-triazol-3-yl)piperidin-1-yl]methyl}phenyl)imidazo[1,2-a]pyridine-8-carbonitrile] | 
6 | < 1000 | 1000 to 10000 | Brc1ccc2nc(-c3ccc(CN4CCC(c5n[nH]c(-c6ccccn6)n5)CC4)cc3)c(-c3ccccc3)n2c1 [Example 6, 6-bromo-3-phenyl-2-(4-{[4-(5-pyridin-2-yl-1,2,4-triazol-3-yl)piperidin-1-yl]methyl}phenyl)imidazo[1,2-a]pyridine] | < 10000
7 |  | 1000 to 10000 | Clc1nccn2c(-c3ccccc3)c(-c3ccc(CN4CCC(c5n[nH]c(-c6ccccn6)n5)CC4)cc3)nc12 [Example 26, 8-chloro-3-phenyl-2-(4-{[4-(5-pyridin-2-yl-1,2,4-triazol-3-yl)piperidin-1-yl]methyl}phenyl)imidazo[1,2-a]pyrazine] | < 10000
8 |  | 1000 to 10000 | FC(F)(F)c1ccn2c(-c3ccccc3)c(-c3ccc(CN4CCC(c5n[nH]c(-c6ccccn6)n5)CC4)cc3)nc2n1 [Example 28, 3-phenyl-2-(4-{[4-(5-pyridin-2-yl-1,2,4-triazol-3-yl)piperidin-1-yl]methyl}phenyl)-7-(trifluoromethyl)imidazo[1,2-a]pyrimidine] | < 10000
9 | < 1000 | < 1000 | Clc1ccc2nc(-c3ccc(CN4CCC(c5n[nH]c(-c6ccccn6)n5)CC4)cc3)c(-c3ccccc3)n2n1 [Example 31, 6-chloro-3-phenyl-2-(4-{[4-(5-pyridin-2-yl-1,2,4-triazol-3-yl)piperidin-1-yl]methyl}phenyl)imidazo[1,2-b]pyridazine] | 
10 |  | 1000 to 10000 | c1ccc(-c2nc(C3CCN(Cc4ccc(-c5nc6ncccn6c5-c5cccs5)cc4)CC3)n[nH]2)nc1 [Example 35, 2-(4-{[4-(5-pyridin-2-yl-1,2,4-triazol-3-yl)piperidin-1-yl]methyl}phenyl)-3-(2-thienyl)imidazo[1,2-a]pyrimidine] | < 10000
11 |  | 1000 to 10000 | c1ccc(-c2nc(C3CCN(Cc4ccc(-c5nc6ncccn6c5-c5ccncc5)cc4)CC3)n[nH]2)nc1 [Example 36, 3-pyridin-4-yl-2-(4-{[4-(5-pyridin-2-yl-1,2,4-triazol-3-yl)piperidin-1-yl]methyl}phenyl)imidazo[1,2-a]pyrimidine] | > 10000
12 | < 1000 | < 1000 | NC(=O)c1cccn2c(-c3ccccc3)c(-c3ccc(CN4CCC(c5n[nH]c(-c6ccccn6)n5)CC4)cc3)nc12 [Example 40, 3-phenyl-2-(4-{[4-(5-pyridin-2-yl-1,2,4-triazol-3-yl)piperidin-1-yl]methyl}phenyl)imidazo[1,2-a]pyridine-8-carboxamide] | 
13 | < 1000 |  | Fc1ccccc1-c1c(-c2ccc(CN3CCC(c4n[nH]c(-c5ccccn5)n4)CC3)cc2)nc2ncccn12 [Example 41, 3-(2-fluorophenyl)-2-(4-{[4-(5-pyridin-2-yl-1,2,4-triazol-3-yl)piperidin-1-yl]methyl}phenyl)imidazo[1,2-a]pyrimidine] | 
14 | < 1000 |  | c1ccc(-c2nc(C3CCN(Cc4ccc(-c5nc6sccn6c5-c5nccs5)cc4)CC3)n[nH]2)nc1 [Example 42, 6-(4-{[4-(5-pyridin-2-yl-1,2,4-triazol-3-yl)piperidin-1-yl]methyl}phenyl)-5-(1,3-thiazol-2-yl)imidazo[2,1-b][1,3]thiazole] | 
